According to patent EP0103381B1, “Substituted anthra(1,9-cd)pyrazol-6(2H)-ones” (WARNER-LAMBERT COMPANY, priority 1982, dated 1984):
Where two headings read alike, the source gives them in different places.

Columns and labels:
Aerobacter aerogenes = assay: agar plate paper-disc inhibition zone screening; type: cell-based; conditions: Klebsiella aerogenes, read-out: Inhibition Zone Diameter mm (Dose mg/ml) A. Aerogenes; for zone of inhibition at 500 µg/mL: Dose 0.5 mg/ml; for zone of inhibition at 100 µg/mL: Dose 0.1 mg/ml
How it was run: (§1)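 Inoculum: saline suspension, 20-35% transmittancy, in molten agar. Discs 12.7 mm, compound 3,000/1,000/500/100/10 mcg/ml, solvent <10%. 37°C, 18-20 h; zone diameter in mm.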

Bacillus subtilis = assay: agar plate paper-disc inhibition zone screening; type: cell-based; conditions: read-out: Inhibition Zone Diameter mm (Dose mg/ml) B. Subtilis; for zone of inhibition at 100 µg/mL: Dose 0.1 mg/ml; for zone of inhibition at 1000 µg/mL: Dose 1.0 mg/ml; for zone of inhibition at 500 µg/mL: Dose 0.5 mg/ml; for zone of inhibition at 3000 µg/mL: Dose 3.0 mg/ml
How it was run: as §1

Escherichia coli = assay: agar plate paper-disc inhibition zone screening; type: cell-based; conditions: read-out: Inhibition Zone Diameter mm (Dose mg/ml) E. Coli; for zone of inhibition at 1000 µg/mL: Dose 1.0 mg/ml; for zone of inhibition at 3000 µg/mL: Dose 3.0 mg/ml
How it was run: as §1

Streptococcus faecalis = assay: agar plate paper-disc inhibition zone screening; type: cell-based; conditions: Enterococcus faecalis, read-out: Inhibition Zone Diameter mm (Dose mg/ml) S. Faecalis; for zone of inhibition at 500 µg/mL: Dose 0.5 mg/ml; for zone of inhibition at 1000 µg/mL: Dose 1.0 mg/ml; for zone of inhibition at 3000 µg/mL: Dose 3.0 mg/ml
How it was run: as §1

Penicillium avellaneum = assay: agar plate paper-disc inhibition zone screening; type: cell-based; conditions: Hamigera avellanea, read-out: Inhibition Zone Diameter mm (Dose mg/ml) P. Avellaneum; for zone of inhibition at 3000 µg/mL: Dose 3.0 mg/ml; for zone of inhibition at 1000 µg/mL: Dose 1.0 mg/ml
How it was run: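 Mycelia and spores from a six-day 28°C agar culture, suspended in saline with 0.05% Tween 80 at 20% transmittancy, were seeded into molten agar trays. Compounds at 3,000, 1,000, 500, 100 and 10 mcg/ml (solvent <10%) were applied on 12.7 mm paper discs. After at least 20-24 h incubation, inhibition zone diameter was measured in mm.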

[1] = test system: HCT-8 (human colon adenocarcinoma) cells; assay: in vitro activity against human colon adenocarcinoma (HCT-8), cell count; type: cell-based
Method: HCT-8 (human colon adenocarcinoma) cells are trypsinized using Trypsin-EDTA. A single cell suspension is achieved by passing the cells through a 26 gauge needle with a 20 cc syringe. A cell suspension is prepared using RPMI 1640 growth medium (available from Gibco Laboratories) +10% fetal calf serum +50 µg/ml garamycin with a cell concentration of approximately 30,000 cells/ml. The cell suspension is dispensed in Linbro 24-well plates; 1 ml/well. The plates are incubated for approximately 48 hrs at 37°C in a 5% C02 atmosphere. At this time test compounds are added in the appropriate concentration. Five µl of the 200 µg/ml stock solution is added to each well in a primary test. Ten pl of the appropriate dilution is added to each well for a titration test. The plates are reincubated an additional 60-65 hrs at 37°C in a 5% C02 atmosphere. The test is read by lysing the cells using a mix of cationic surfactant, glacial acetic acid and sodium chloride. […] of the lysed cell suspension from each well is added to 8 ml of diluent. Each sample is read with a Coulter counter (ZBI model). The activity of each sample is measured as a percentage of the controls and the data is reported as ID50, that is the molar quantity of drug required to kill 50% of the tumor cells.

[2] = test system: lymphocytic leukemia P388; assay: in vivo lymphocytic leukemia P388 test; design: species or system mice; conditions: Mus musculus, P388, ip, 720 h, two single doses four days apart, read-out: T/C × 100 (Percent); for response vs control in vivo at 12.5 mg/kg: P388, Dose 12.5 mg/kg intraperitoneally; for response vs control in vivo at 25 mg/kg: P388, Dose 25 mg/kg intraperitoneally; for response vs control in vivo at 50 mg/kg: P388, Dose 50 mg/kg intraperitoneally; for response vs control in vivo at 3.12 mg/kg: P388, Dose 3.12 mg/kg intraperitoneally
How it was run: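 Efficacy was judged from the treated/control survival-time ratio over 30 days (T/C×100 >125% as criterion). Mice (CD2F, 6–7/group) received i.p. P388 ascites cells, then compound i.p. at varied doses twice, four days apart.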

[3] = Homo sapiens, HCT-8 cells, 60-65 hrs with compound, molar quantity of drug required to kill 50% of the tumor cells, read-out: ID50 Molar
[4] = HCT-8 human colon adenocarcinoma cells, 60-65 hrs incubation with compound, Coulter counter cell count as percentage of controls, read-out: ID50 (the source's name)

CCN(CC)CCn1nc2c3c(c(NCCN)ccc31)C(=O)c1ccccc1-2 [Example 3, 5-[(2-Aminoethyl)amino]-2-[2-(diethylamino)ethyl]anthra[1,9-cd]pyrazol-6(2H)-one]
zone of inhibition at 500 µg/mL (Aerobacter aerogenes): 14 mm | zone of inhibition at 100 µg/mL (Bacillus subtilis): 15 mm | zone of inhibition at 1000 µg/mL (Escherichia coli): 14 mm | zone of inhibition at 500 µg/mL (Streptococcus faecalis): 17 mm | zone of inhibition at 3000 µg/mL (Penicillium avellaneum): 16 mm | IC50 [1, 3]: 0.052 µM

CCN(CC)CCNc1ccc2c3c(nn2CCN(CC)CC)-c2ccccc2C(=O)c13 [Example 1]
zone of inhibition at 500 µg/mL (Aerobacter aerogenes): 19 mm | zone of inhibition at 100 µg/mL (Bacillus subtilis): 15 mm | zone of inhibition at 1000 µg/mL (Escherichia coli): 15 mm | zone of inhibition at 500 µg/mL (Streptococcus faecalis): 14 mm | zone of inhibition at 3000 µg/mL (Penicillium avellaneum): 19 mm | IC50 [1, 3]: 0.14 µM

CCN(CC)CCCCNc1ccc2c3c(nn2CCN(CC)CC)-c2ccccc2C(=O)c13 [Example 7]
zone of inhibition at 100 µg/mL (Aerobacter aerogenes): 16 mm | zone of inhibition at 1000 µg/mL (Bacillus subtilis): 17 mm | zone of inhibition at 3000 µg/mL (Escherichia coli): 15 mm | zone of inhibition at 1000 µg/mL (Streptococcus faecalis): 14 mm | zone of inhibition at 3000 µg/mL (Penicillium avellaneum): 14 mm | IC50 [1, 3]: 0.22 µM

CCN(CC)CCNc1ccc2c3c(nn2C)-c2ccccc2C(=O)c13 [Example 10, 5-[[2-[Diethylamino)ethyl]amino]-2-methylanthra[1,9-cd]pyrazol-6(2H)-one]
zone of inhibition at 500 µg/mL (Aerobacter aerogenes): 17 mm | zone of inhibition at 100 µg/mL (Bacillus subtilis): 15 mm | zone of inhibition at 3000 µg/mL (Escherichia coli): 15 mm | zone of inhibition at 1000 µg/mL (Streptococcus faecalis): 16 mm | zone of inhibition at 500 µg/mL (Penicillium avellaneum; Dose 0.5 mg/ml): 16 mm | IC50 [1, 3]: 0.41 µM

O=C1c2ccccc2-c2n[nH]c3ccc(NCCNCCO)c1c23 [Example 19, 5-[[2-[(2-Hydroxyethyl)amino]ethyl]amino]anthra[1,9-cd]pyrazol-6-(2H)-one]
zone of inhibition at 500 µg/mL (Aerobacter aerogenes): 18 mm | zone of inhibition at 500 µg/mL (Bacillus subtilis): 19 mm | zone of inhibition at 3000 µg/mL (Escherichia coli): 0 mm | zone of inhibition at 3000 µg/mL (Streptococcus faecalis): 17 mm | zone of inhibition at 3000 µg/mL (Penicillium avellaneum): 0 mm | IC50 [1, 3]: 1.5 µM

CCN(CC)CCn1nc2c3c(cccc31)C(=O)c1c(NCCNCCO)cccc1-2 [Example 79, 2-[2-(Diethylamino)ethyl]-7-[[2-[(2-hydroxyethyl)amino]ethyl]amino]anthra[1,9-cd]pyrazol-6(2H)-one]
zone of inhibition at 500 µg/mL (Aerobacter aerogenes): 18 mm | zone of inhibition at 100 µg/mL (Bacillus subtilis): 20 mm | zone of inhibition at 500 µg/mL (Escherichia coli; Dose 0.5 mg/ml): 15 mm | zone of inhibition at 500 µg/mL (Streptococcus faecalis): 16 mm | zone of inhibition at 3000 µg/mL (Penicillium avellaneum): 15 mm | IC50 [1, 3]: 0.093 µM

CCN(CC)CCn1nc2c3c(c(NCCN4CCNCC4)ccc31)C(=O)c1ccccc1-2 [Example 9, 2-(2-(Diethylamino)ethyl]-5-[[2-(1-piperazinyl)ethyl]amino]anthra[1,9-cd]pyrazol-6(2H)-one]
zone of inhibition at 100 µg/mL (Aerobacter aerogenes): 19 mm | zone of inhibition at 1000 µg/mL (Bacillus subtilis): 24 mm | zone of inhibition at 3000 µg/mL (Escherichia coli): 0 mm | zone of inhibition at 3000 µg/mL (Streptococcus faecalis): 14 mm | zone of inhibition at 1000 µg/mL (Penicillium avellaneum): 0 mm | IC50 [1, 3]: 0.38 µM

Cn1nc2c3c(c(NCCNCCO)ccc31)C(=O)c1ccccc1-2 [Example 11, 5-[[2-[(2-Hydroxyethyl)amino]ethyl]amino]-2-methylanthra[1,9-cd]pyrazol-6(2H)-one]
zone of inhibition at 500 µg/mL (Aerobacter aerogenes): 17 mm | zone of inhibition at 100 µg/mL (Bacillus subtilis): 14 mm | zone of inhibition at 1000 µg/mL (Escherichia coli): 14 mm | zone of inhibition at 1000 µg/mL (Streptococcus faecalis): 14 mm | zone of inhibition at 3000 µg/mL (Penicillium avellaneum): 0 mm | IC50 [1, 3]: 0.4 µM

CCN(CC)CCCCCCCNc1ccc2c3c(nn2CCN(CC)CC)-c2ccccc2C(=O)c13 [Example 6]
zone of inhibition at 3000 µg/mL (Aerobacter aerogenes; Dose 3.0 mg/ml): 0 mm | zone of inhibition at 500 µg/mL (Bacillus subtilis): 17 mm | zone of inhibition at 1000 µg/mL (Escherichia coli): 14 mm | zone of inhibition at 3000 µg/mL (Streptococcus faecalis): 14 mm | zone of inhibition at 1000 µg/mL (Penicillium avellaneum): 14 mm | IC50 [1, 3]: 2.2 µM

CN(C)CCNCCNc1ccc2c3c(nn2CCN)-c2c(O)ccc(O)c2C(=O)c13 [Example 74, 2-[2-Aminoethyl)-5-[[2-[[2-(dimethylamino)ethyl]amino]ethyl]amino]-7,10-dihydroxyanthra[1,9-cd]pyrazol-6(2H)-one]
zone of inhibition at 3000 µg/mL (Bacillus subtilis): 16 mm | zone of inhibition at 3000 µg/mL (Streptococcus faecalis): 0 mm | zone of inhibition at 3000 µg/mL (Penicillium avellaneum): 0 mm | response vs control in vivo at 12.5 mg/kg [2]: 186% | response vs control in vivo at 25 mg/kg [2]: 192% | response vs control in vivo at 50 mg/kg [2]: 220% | IC50 [1, 4]: 1.2 µM

CNCCn1nc2c3c(c(NCCNCCO)ccc31)C(=O)c1c(O)ccc(O)c1-2 [Example 93, 7,10-Dihydroxy-5-[[2-[(2-hydroxyethyl)amino]ethyl]amino]-2-[2-(methylamino)ethyl]anthra[1,9-cd]pyrazol-6(2H)-one]
response vs control in vivo at 12.5 mg/kg [2]: 147% | IC50 [1, 4]: 0.23 µM

CNCCNc1ccc2c3c(nn2CCNCCO)-c2cccc(O)c2C(=O)c13
IC50 [1, 4]: 0.027 µM

Cn1nc2c3c(c(NCCNCCO)ccc31)C(=O)c1c(O)ccc(O)c1-2 [Example 41, 7,10-Dihydroxy-5-[[2-[(2-hydroxyethyl)amino]ethyl]amino]-2-methylanthra[1,9-cd]pyrazol-6(2H)-one]
response vs control in vivo at 3.12 mg/kg [2]: 138% | response vs control in vivo at 12.5 mg/kg [2]: 140% | response vs control in vivo at 25 mg/kg [2]: 150% | response vs control in vivo at 50 mg/kg [2]: 162% | response vs control in vivo at 100 mg/kg ([2]; P388, Dose 100 mg/kg intraperitoneally): 174% | IC50 [1, 3]: 0.79 µM

CNCCNc1ccc2c3c(nn2CCNCCO)-c2c(O)ccc(O)c2C(=O)c13
IC50 [1, 4]: 0.4 µM

CCN(CC)CC(O)Cn1nc2c3c(c(NCCNCCO)ccc31)C(=O)c1c(O)ccc(O)c1-2 (stereo not shown)
IC50 [1, 4]: 0.69 µM

NCCCn1nc2c3c(c(NCCNCCO)ccc31)C(=O)c1c(O)ccc(O)c1-2 [Example 90, 2-(3-Aminopropyl)-7,10-dihydroxy-5-[[2-[(2-hydroxyethyl)amino]ethyl]amino]anthra[1,9-cd]pyrazol-6(2H)-one]
zone of inhibition at 3000 µg/mL (Bacillus subtilis): 16 mm | zone of inhibition at 3000 µg/mL (Streptococcus faecalis): 0 mm | zone of inhibition at 3000 µg/mL (Penicillium avellaneum): 0 mm | response vs control in vivo at 25 mg/kg [2]: 285% | response vs control in vivo at 50 mg/kg [2]: 285% | IC50 [1, 4]: 0.77 µM

O=C1c2c(O)cccc2-c2nn(CCNCCO)c3ccc(NCCNCCO)c1c23
IC50 [1, 4]: 0.061 µM

NCCn1nc2c3c(c(NCCNCCO)ccc31)C(=O)c1c(O)ccc(O)c1-2 [Example 71, 2-(2-Aminoethyl)-7,10-dihydroxy-5-[[2-[(2-hydroxyethyl)amino]ethyl]amino]anthra[1,9-cd]pyrazol-6(2H)-one]
response vs control in vivo at 1.56 mg/kg ([2]; P388, Dose 1.56 mg/kg intraperitoneally): 153% | response vs control in vivo at 3.12 mg/kg [2]: 160% | response vs control in vivo at 6.25 mg/kg ([2]; P388, Dose 6.25 mg/kg intraperitoneally): 163% | response vs control in vivo at 12.5 mg/kg [2]: 182% | response vs control in vivo at 25 mg/kg [2]: 257% | IC50 [1, 4]: 1.7 µM
